Assay results taken from patent US20070134660A1, “Methods for identifying modulators of kinesin activity” (ROSETTA INPHARMATICS LLC, priority 2003, published 2007).

Columns and labels:
KSP (SEQ ID NO:15) = target: T1, KSP (SEQ ID NO:15) (Homo sapiens, UniProt P52732); experiment: KSP motor domain ATPase assay; type: biochemical; conditions: n = 2
T1 construct: His6 (printed only as 'H')
T1 sequence (P52732 with tags, fused parts or gaps): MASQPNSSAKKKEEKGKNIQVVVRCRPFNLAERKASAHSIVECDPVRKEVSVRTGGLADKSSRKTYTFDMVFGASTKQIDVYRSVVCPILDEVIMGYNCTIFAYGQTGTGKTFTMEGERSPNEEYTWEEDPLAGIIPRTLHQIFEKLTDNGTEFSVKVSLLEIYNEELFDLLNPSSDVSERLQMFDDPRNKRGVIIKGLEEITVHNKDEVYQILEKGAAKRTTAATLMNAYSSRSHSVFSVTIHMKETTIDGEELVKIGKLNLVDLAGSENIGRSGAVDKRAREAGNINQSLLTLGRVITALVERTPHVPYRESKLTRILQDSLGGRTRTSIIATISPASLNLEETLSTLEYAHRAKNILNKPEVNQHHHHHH

KIF3A (SEQ ID NO:16) = target: T2, KIF3A (SEQ ID NO:16) (Homo sapiens, UniProt Q9Y496); experiment: KIF3A motor domain ATPase assay; type: biochemical; conditions: n = 2
T2 construct: His6 (printed only as 'H')
T2 sequence (Q9Y496 with tags, fused parts or gaps): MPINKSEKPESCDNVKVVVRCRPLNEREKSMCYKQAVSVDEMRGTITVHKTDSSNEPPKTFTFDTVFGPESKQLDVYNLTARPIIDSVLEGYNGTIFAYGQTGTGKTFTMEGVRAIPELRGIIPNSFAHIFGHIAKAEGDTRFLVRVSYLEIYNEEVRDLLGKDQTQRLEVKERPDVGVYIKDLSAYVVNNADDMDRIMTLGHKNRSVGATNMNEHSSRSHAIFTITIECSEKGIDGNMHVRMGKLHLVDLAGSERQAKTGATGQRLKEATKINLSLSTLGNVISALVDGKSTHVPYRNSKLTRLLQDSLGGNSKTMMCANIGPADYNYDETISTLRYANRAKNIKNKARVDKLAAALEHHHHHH

uKHC (SEQ ID NO:17) = target: T3, uKHC (SEQ ID NO:17) (Homo sapiens, UniProt P33176); experiment: uKHC motor domain ATPase assay; type: biochemical; conditions: read-out: uKHC, nKHC, CENP-E, MKLP-1, KIF1B, MCAK ATPase IC50
T3 construct: His6 (printed only as 'H')
T3 sequence (P33176 with tags, fused parts or gaps): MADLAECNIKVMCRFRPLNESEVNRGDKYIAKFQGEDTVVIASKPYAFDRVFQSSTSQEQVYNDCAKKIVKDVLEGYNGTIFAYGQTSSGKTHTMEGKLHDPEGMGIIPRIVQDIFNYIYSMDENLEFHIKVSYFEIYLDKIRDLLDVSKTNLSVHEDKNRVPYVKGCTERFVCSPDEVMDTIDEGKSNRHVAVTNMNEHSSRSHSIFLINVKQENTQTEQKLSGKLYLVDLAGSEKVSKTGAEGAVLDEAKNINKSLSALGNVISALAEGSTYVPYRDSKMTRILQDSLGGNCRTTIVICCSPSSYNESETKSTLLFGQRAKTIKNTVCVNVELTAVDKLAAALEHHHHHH

nKHC (SEQ ID NO:18) = target: T4, nKHC (SEQ ID NO:18) (Homo sapiens, UniProt Q12840); experiment: nKHC motor domain ATPase assay; type: biochemical; conditions: read-out: uKHC, nKHC, CENP-E, MKLP-1, KIF1B, MCAK ATPase IC50
T4 construct: His6 (printed only as 'H')
T4 sequence (Q12840 with tags, fused parts or gaps): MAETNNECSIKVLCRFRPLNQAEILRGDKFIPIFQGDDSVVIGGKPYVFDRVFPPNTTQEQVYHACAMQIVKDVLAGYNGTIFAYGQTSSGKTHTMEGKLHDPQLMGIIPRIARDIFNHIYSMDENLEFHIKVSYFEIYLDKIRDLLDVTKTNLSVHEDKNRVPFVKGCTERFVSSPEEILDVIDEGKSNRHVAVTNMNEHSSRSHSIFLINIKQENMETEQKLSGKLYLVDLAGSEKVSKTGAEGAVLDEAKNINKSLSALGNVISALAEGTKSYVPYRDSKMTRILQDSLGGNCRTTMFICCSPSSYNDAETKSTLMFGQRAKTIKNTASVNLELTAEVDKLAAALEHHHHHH

KIF1B (SEQ ID NO:21) = target: T5, KIF1B (SEQ ID NO:21) (Homo sapiens, UniProt O60333); experiment: KIF1B motor domain ATPase assay; type: biochemical; conditions: read-out: uKHC, nKHC, CENP-E, MKLP-1, KIF1B, MCAK ATPase IC50
T5 construct: His6 (printed only as 'H')
T5 sequence (O60333 with tags, fused parts or gaps): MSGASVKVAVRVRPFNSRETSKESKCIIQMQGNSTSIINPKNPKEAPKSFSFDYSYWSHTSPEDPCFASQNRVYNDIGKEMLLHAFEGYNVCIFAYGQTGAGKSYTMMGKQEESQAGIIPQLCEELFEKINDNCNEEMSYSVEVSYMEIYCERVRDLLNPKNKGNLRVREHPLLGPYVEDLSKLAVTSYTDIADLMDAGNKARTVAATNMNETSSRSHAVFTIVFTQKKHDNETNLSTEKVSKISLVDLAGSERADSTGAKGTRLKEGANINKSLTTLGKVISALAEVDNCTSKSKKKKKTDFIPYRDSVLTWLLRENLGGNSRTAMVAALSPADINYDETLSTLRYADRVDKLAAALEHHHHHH

HeLa cells = experiment: alamarBlue cell growth assay, candidate KIF14 modulators in HeLa cells; type: cell-based, human; conditions: 72 hours; for IC50: Homo sapiens, HeLa, compounds 1 and 2: submaximal inhibition
Method: alamarBlue™ Assay for Cell Growth: The alamarBlue™ assay is a measure of cellular respiration and is used as a measure of live cell number. The internal environment of the proliferating cell is more reduced than that of non-proliferating cells. Specifically, the ratios of NADPH/NADP, FADH/FAD, FMNH/FMN, and NADH/NAF increase during proliferation. alamarBlue™ can be reduced by these metabolic intermediates and, therefore, can be used to monitor cell proliferation.
HeLa cells were plated at a density of 2000/cells per well in 10% DMEM in a 96-well plate (Costar, Cat. No. 3606) 20 hours prior to treatment with a KIF14 inhibitory compound in a series of dilutions (20 microliters of 11-fold concentrated solution of the compound added to 200 microliters of media). The cells were incubated at 37° C. for 72 hours prior to replacement of 100 microliters per well of the media with 10% (vol/vol) alamarBlue™ reagent. After incubation for 2 hours at 37° C., the plates were read on a spectrofluorimeter SpectroMax Gemini (excitation 544 nm, emission 590 nm). The background value (averaged from wells with no cells) was subtracted from each reading.

MKLP-1 (SEQ ID NO:20) = target: T6, MKLP-1 (SEQ ID NO:20) (Homo sapiens, UniProt Q02241); experiment: MKLP-1 motor domain ATPase assay; type: biochemical; conditions: read-out: uKHC, nKHC, CENP-E, MKLP-1, KIF1B, MCAK ATPase IC50
T6 construct: His6 (printed only as 'H')
T6 sequence (Q02241 with tags, fused parts or gaps): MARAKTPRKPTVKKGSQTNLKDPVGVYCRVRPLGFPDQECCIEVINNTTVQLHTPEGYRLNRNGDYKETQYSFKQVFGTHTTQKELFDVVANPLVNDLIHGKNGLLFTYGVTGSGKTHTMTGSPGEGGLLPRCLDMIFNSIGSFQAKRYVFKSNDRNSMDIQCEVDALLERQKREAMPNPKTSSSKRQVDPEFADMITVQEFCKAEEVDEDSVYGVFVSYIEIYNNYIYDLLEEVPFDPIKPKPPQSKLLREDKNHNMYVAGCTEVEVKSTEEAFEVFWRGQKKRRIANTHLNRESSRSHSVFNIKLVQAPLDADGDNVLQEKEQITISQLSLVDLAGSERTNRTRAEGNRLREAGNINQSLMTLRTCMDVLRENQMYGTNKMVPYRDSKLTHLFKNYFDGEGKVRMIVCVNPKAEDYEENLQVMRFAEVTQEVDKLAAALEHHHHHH

Row | IC50 (KSP (SEQ ID NO:15)) [µM] | IC50 (KIF3A (SEQ ID NO:16)) [µM] | IC50 (uKHC (SEQ ID NO:17)) [µM] | IC50 (nKHC (SEQ ID NO:18)) [µM] | IC50 (KIF1B (SEQ ID NO:21)) [µM] | IC50 (MKLP-1 (SEQ ID NO:20)) [µM] | SMILES | IC50 (HeLa cells) [µM] | Growth Inhibition in HeLa Cells (HeLa cells; [Compound] 19.5 nm) [%] | Growth Inhibition in HeLa Cells (HeLa cells; [Compound] 39.1 nm) [%] | Growth Inhibition in HeLa Cells (HeLa cells; [Compound] 78.1 nm) [%] | Growth Inhibition in HeLa Cells (HeLa cells; [Compound] 156.2 nm) [%] | Growth Inhibition in HeLa Cells (HeLa cells; [Compound] 312.5 nm) [%] | Growth Inhibition in HeLa Cells (HeLa cells; [Compound] 625 nm) [%] | Growth Inhibition in HeLa Cells (HeLa cells; [Compound] 1250 nm) [%] | Growth Inhibition in HeLa Cells (HeLa cells; [Compound] 2500 nm) [%] | Growth Inhibition in HeLa Cells (HeLa cells; [Compound] 5000 nm) [%] | Growth Inhibition in HeLa Cells (HeLa cells; [Compound] 10000 nm) [%]
1 | 1.53 | 0.699 | > 40 | > 40 | > 40 | > 40 | NC(=S)N/N=C/c1ccc(C2CCCCC2)cc1 [compound 3, 4-cyclohexylbenzaldehyde thiosemicarbazone] | 2.8 | 8.97 | 5.97 | 8.16 | 6.91 | 8.88 | 12.32 | 7.53 | 44.36 | 83.84 | 95.02
2 | 1.1 | 1.55 | > 40 | > 40 | > 40 | > 40 | CC(C)c1ccc(/C=N/NC(N)=S)cc1[N+](=O)[O-] [compound 4, 4-isopropyl-3-nitrobenzaldehyde thiosemicarbazone] | – | – | – | – | – | – | – | – | – | – | –
3 | 25.1 | 31 | > 40 | > 40 | > 40 | > 40 | CC(C)c1ccc(/C=N/NC(N)=S)cc1 [compound 2, 4-isopropylbenzaldehyde thiosemicarbazone] | – | – | – | – | – | – | – | – | – | – | –

Row | SMILES | IC50 (KSP (SEQ ID NO:15)) [µM] | IC50 (KIF3A (SEQ ID NO:16)) [µM] | IC50 (uKHC (SEQ ID NO:17)) [µM] | IC50 (nKHC (SEQ ID NO:18)) [µM] | IC50 (KIF1B (SEQ ID NO:21)) [µM] | IC50 (MKLP-1 (SEQ ID NO:20)) [µM] | IC50 (HeLa cells) [µM] | Growth Inhibition in HeLa Cells (HeLa cells; [Compound] 19.5 nm) [%] | Growth Inhibition in HeLa Cells (HeLa cells; [Compound] 39.1 nm) [%] | Growth Inhibition in HeLa Cells (HeLa cells; [Compound] 78.1 nm) [%] | Growth Inhibition in HeLa Cells (HeLa cells; [Compound] 156.2 nm) [%] | Growth Inhibition in HeLa Cells (HeLa cells; [Compound] 312.5 nm) [%] | Growth Inhibition in HeLa Cells (HeLa cells; [Compound] 625 nm) [%] | Growth Inhibition in HeLa Cells (HeLa cells; [Compound] 1250 nm) [%] | Growth Inhibition in HeLa Cells (HeLa cells; [Compound] 2500 nm) [%] | Growth Inhibition in HeLa Cells (HeLa cells; [Compound] 5000 nm) [%] | Growth Inhibition in HeLa Cells (HeLa cells; [Compound] 10000 nm) [%]
4 | NC(=S)N/N=C\c1ccc(-c2ccccc2)cc1 [compound 1, 1,1′-biphenyl-4-carbaldehyde thiosemicarbazone] | > 40 | 0.631 | > 40 | > 40 | > 40 | > 40 | 1 | −3.58 | −4.74 | −2.50 | 5.29 | 10.32 | 12.76 | 19.73 | 51.68 | 48.18 | 40.98
